In article PMC10349806 (Nature Communications, 2023):
Values joined by “and” are separate entries in the source; they are usually repeats but may differ in a detail not shown here. Equal entries are not always repeated.

Columns and labels:
PfCRT variant E207T = experiment: CQ uptake assay, oocytes expressing E207T; type: cell-based, Plasmodium falciparum
Method: (§1) Site-directed mutagenesis of PfCRT^Dd2 was performed as described using the megaprimer method with overlap extension[21],[54]. The primer pairs used are listed in Supplementary Table 6. Please note that a codon-optimized and oocyte-adapted version of PfCRT^Dd2 was used[22] (Supplementary Fig. 16). The resulting DNA fragment was cloned into the SP64T expression vector and verified by sequencing.
(§2) Oocytes were obtained as described previously. Briefly, adult (>2 years old) female X. laevis frogs (NASCO) were anesthetized in a cooled solution of ethyl 3-amino benzoate methanesulfonate (0.1%, w/v), followed by a surgical removal of parts of the ovary. The ovary lobes were carefully dissected and small pieces of oocytes were incubated in Ca^2+-free ND96 buffer (96 mM NaCl, 2 mM KCl, 1 mM MgCl2 buffered with 5 mM HEPES/NaOH, pH 7.5) supplemented with collagenase D (0.1%, w/v; Roche), BSA (0.5%, w/v), and 9 mm Na2HPO4 at 18 °C for 14-16 h while gentle shaking. After incubation, the oocytes were carefully washed several times with ND96 buffer (96 mM NaCl, 2 mM KCl, 1.8 mM CaCl2, 1 mM MgCl2 buffered with 5 mM HEPES/NaOH, pH 7.5) supplemented with 100 mg l^−1 gentamycin). Defolliculated and healthy-looking stage V-VI oocytes were manually selected for RNA microinjection. The RNA was generated as following: The codon-optimized sequences of PfCRT variants were cloned into the pSP64T expression vector. After vector linearization using the restriction endonucleases BamHI or SalI (New England Biolabs), transcription was performed using the in vitro SP6 mMessage mMachine Kit (Ambion)[34]. The obtained RNA was kept at −80 °C and diluted with nuclease-free water to a concentration of 0.6 μg μl^−1. Precision-bore glass capillary tubes (3.5-inch glass capillaries; Drummond Scientific Co.) were pulled on a vertical puller (P-87 Flaming/Brown micropipette puller, Sutter Instrument Co.), graduated, and placed on a microinjector (Nanoject II Auto-Nanoliter Injector, Drummond Scientific Co.). 50 nl of nuclease-free water alone (control oocytes) or 50 nl of 0.6 μg μl^−1 RNA were injected under stereomicroscopic control. Injected oocytes were incubated for 46–72 h at 18 °C with twice-daily buffer changes before usage in experiments.
Drug uptake assays were performed as described previously[21],[22],[24],[34]. […] The direction of radio-labeled drug transport is here from the mostly acidic extracellular solution (pH 4.5 or 6.0, as indicated) into the oocyte cytosol (pH ∼ 7.2), which corresponds to the efflux of drug from the acidic digestive vacuole (pH 5.2) into the parasite cytoplasm (pH 7.2). The topology of PfCRT in the oolemma is such that both the N- and C-terminus face the extracellular milieu[3],[22]. In the parasite, the N- and C-terminus face the lumen of the digestive vacuole. […] For determination of the amount of drug uptake for each oocyte, the reaction medium was removed and the oocytes were washed three times with 2 ml of ice-cold ND96 buffer. Each oocyte was individually transferred to a scintillation vial containing 5% sodium dodecyl sulfate (200 μl) for lysis. […] Oocytes that were injected with water instead of RNA were analyzed in parallel, representing the uptake of a drug by diffusion and/or endogenous permeation pathways. […] The specific PfCRT-mediated uptake was determined by subtracting the corresponding background value measured in water-injected oocytes from that of PfCRT-expressing oocytes. […]

PfCRT variant D368A = biological target: T1, PfCRT variant D368A (Plasmodium falciparum, UniProt Q9N623, A220S/D368A/I356T/K76T/M74I/N326S/N75E/Q271E/R371I); experiment: CQ uptake assay, oocytes expressing D368A; type: cell-based
T1 sequence (Q9N623 1-424 M74I/N75E/K76T/A220S/Q271E/N326S/I356T/D368A/R371I): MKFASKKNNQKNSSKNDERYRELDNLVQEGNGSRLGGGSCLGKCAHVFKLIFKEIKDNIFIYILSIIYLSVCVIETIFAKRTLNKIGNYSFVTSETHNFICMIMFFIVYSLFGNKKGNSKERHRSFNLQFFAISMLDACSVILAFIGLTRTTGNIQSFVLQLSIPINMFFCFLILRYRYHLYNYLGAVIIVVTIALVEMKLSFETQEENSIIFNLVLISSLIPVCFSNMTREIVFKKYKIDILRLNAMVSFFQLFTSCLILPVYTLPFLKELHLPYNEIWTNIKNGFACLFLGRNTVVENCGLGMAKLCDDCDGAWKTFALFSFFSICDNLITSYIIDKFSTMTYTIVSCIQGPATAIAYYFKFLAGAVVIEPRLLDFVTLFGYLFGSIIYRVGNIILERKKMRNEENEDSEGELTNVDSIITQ
Method: as §1, §2
Drug uptake assays were performed as described previously[21],[22],[24],[34]. […] The direction of radio-labeled drug transport is here from the mostly acidic extracellular solution (pH 4.5 or 6.0, as indicated) into the oocyte cytosol (pH ∼ 7.2), which corresponds to the efflux of drug from the acidic digestive vacuole (pH 5.2) into the parasite cytoplasm (pH 7.2). The topology of PfCRT in the oolemma is such that both the N- and C-terminus face the extracellular milieu[3],[22]. In the parasite, the N- and C-terminus face the lumen of the digestive vacuole. CQ uptake kinetics were performed by incubating oocytes in ND96 buffer adjusted to a pH of 4.5, 5.0, 5.5, or 6.0 and supplemented with 50 nM [^3H]CQ and one of 7 different CQ concentrations (10 µM, 50 µM, 100 µM, 200 µM, 300 µM, 400 µM, 500 µM CQ). The reaction was stopped at the 60 min time point, which is in the linear uptake range[22],[34] (Supplementary Fig. 17). […] The radioactivity of each sample was measured using a liquid scintillation analyzer Tri-Carb 4910 TR (PerkinElmer). Oocytes that were injected with water instead of RNA were analyzed in parallel, representing the uptake of a drug by diffusion and/or endogenous permeation pathways. […]

[1] = D368A, 50 µM CQ, 1 h, mean ± SEM

With CCN(CC)CCCC(C)Nc1ccnc2cc(Cl)ccc12 (stereo not shown) [CQ, chloroquine] the “Activity at pH 6.0” value (PfCRT variant E207T; E207T, 50 µM CQ, 1 h, mean ± SEM) was 2.62 ± 0.31 pmol h-1 oocyte-1, the R-value (PfCRT variant E207T; E207T, CQ transport at pH 4.5 / pH 6.0) was 0.91 ± 0.05 and the “E207T transport activity pH 4.5” value (PfCRT variant E207T; pH 4.5, individual replicates, Fig 6b) was 3.35 pmol oocyte-1 h-1 and 2.14 pmol oocyte-1 h-1 and 1.74 pmol oocyte-1 h-1. The “E207T transport activity pH 6.0” value (PfCRT variant E207T; pH 6.0, individual replicates, Fig 6b) was 3.37 pmol oocyte-1 h-1 and 2.31 pmol oocyte-1 h-1 and 2.17 pmol oocyte-1 h-1, the “E207T R-value” (PfCRT variant E207T; ratio of activity pH 4.5 / pH 6.0) was 0.99 and 0.93 and 0.80 and the “Activity at pH 4.5” value (PfCRT variant D368A; [1]) was 1.36 ± 0.32 pmol h-1 oocyte-1. For the same compound, the “Activity at pH 6.0” value (PfCRT variant D368A; [1]) was 3.05 ± 0.29 pmol h-1 oocyte-1, the R-value (PfCRT variant D368A; D368A, CQ transport at pH 4.5 / pH 6.0) was 0.44 ± 0.08 and the “D368A transport activity pH 4.5” value (PfCRT variant D368A; pH 4.5, single replicates, Fig 1d left) was 2.14 pmol oocyte-1 h-1 and 0.90 pmol oocyte-1 h-1 and 1.05 pmol oocyte-1 h-1. For the same compound, the “D368A transport activity pH 6.0” value (PfCRT variant D368A; pH 6.0, single replicates, Fig 1d left) was 3.49 pmol oocyte-1 h-1 and 3.31 pmol oocyte-1 h-1 and 2.36 pmol oocyte-1 h-1.
